Test results: patent publication US20040259790A1, “Methods for identifying and administering agents that bias the immune response via dendritic cells” (priority 2003, published 2004)
Entries after “also recorded” stand apart in the source; their conditions may differ. Where two headings read alike, the source gives them in different places.

Columns and labels:
[1] = tested on: splenic CD11c+ CD11b+ and CD11c+ CD11b− DC subsets; experiment: Activation of splenic DC subsets in vivo
ERK1/2 [2] = experiment: MAP-kinase signaling in DCs: ERK1/2 phosphorylation; assay type: cell-based, human; conditions: 0.25, 1 and 4 h stimulation
[3] = tested on: human monocyte-derived DCs; experiment: DC phenotype/maturation by flow cytometry (CD80, CD86, CD83); assay type: cell-based; conditions: immature DCs cultured 48 h with stimulus
Method: Isolation and culture of human monocyte-derived DCs: CD14^+ monocytes were enriched from peripheral blood mononuclear cells (PBMCs), using an enrichment step, and cultured in six well plates (1×10^6 cells/well) for six days with recombinant Human GM-CSF at 100 ng/ml (PeproTech, NJ) and recombinant Human IL-4 at 20 ng/ml (PeproTech, NJ). At day six, the cultures consisted uniformly of CD1a^+CD14^−, HLA-DR^+ CD11c^+ cells, which were negative for CD83, the human DC maturation marker, and expressed intermediate levels of such costimulatory molecules as CD86 (Rissoan et al., Science 283:1183-1186, 1999). On day six, the immature DCs were pulsed with E. coli LPS ([…]), flagellin ([…]), Pam3cys ([…]), or SEA ([…]) for 48 hours.
DC phenotype: The phenotype of DCs was determined by flow cytometry using a Facscalibur (BD Pharmingen, CA). Briefly, gated CD1a^+CD14^−, CD11c^+ HLA-DR^+ DCs were analyzed for the expression of CD80, CD86, CD83 and CD40. All antibodies, including the PE-labeled isotype controls were purchased from BD Pharmingen (La Jolla, Calif.).
Isolation and culture of human monocyte-derived DCs: CD14^+ monocytes were enriched from peripheral blood mononuclear cells, and cultured for 6 days with recombinant human GM-CSF at 100 ng/ml (PeproTech, NJ) plus recombinant human IL-4, at 20 ng/ml (PeproTech). At day 6, the cultures consisted uniformly of CD1a^+ CD14^−, HLA-DR^+ CD11c^+ cells, which were negative for CD83. These immature DCs were pulsed with Ec.LPS (1 μg/ml), flagellin (0.5 μg/ml), Pam3cys (20 μg/ml), or SEA (100 μg/ml) for 48 h.
DC phenotype: This was determined by flow cytometry using a Facscalibur (BD Pharmingen, CA). Briefly, gated CD1a^+CD14^−, C11c+ HLA-DR^+DCs were analyzed for the expression of CD80, CD86, CD83 and CD40 (BD Pharmingen, La Jolla, Calif.).

[4] = tested on: OVA-specific CD8+ T cells; experiment: Antigen-specific CD8+ T cell responses in vivo (OT-1 adoptive transfer); set-up: species or system mice; conditions: for clonal expansion of OVA-specific CD8+ T cells: i.p. with OVA257-264 50 μg, E. coli LPS 25 μg or Pam-3-cys 50 μg, day 4
[5] = tested on: human monocyte-derived DCs; experiment: Cytokine production by DCs (ELISA); assay type: cell-based
c-Fos = experiment: Flow cytometric evaluation of c-Fos expression in DCs; assay type: cell-based, human; conditions: for phosphorylated c-Fos expression in DCs: flow cytometry
[6] = tested on: OVA-specific CD4+ T cells; experiment: Antigen-specific CD4+ T cell responses in vivo (OT-2 adoptive transfer); set-up: species or system mice
p38 MAP kinase = experiment: MAP-kinase signaling in DCs: p38 phosphorylation; assay type: cell-based, human
[7] = tested on: naïve, allogeneic CD4+ CD45RA+ CD45RO− T cells; experiment: DC-T cell cultures: T-cell proliferation and Th1/Th2 cytokines; assay type: cell-based, human; conditions: for IFNγ in DC-T cell culture: DCs stimulated 48 h, then 5 days with naive CD4+ T cells
JNK1/2 = experiment: MAP-kinase signaling in DCs: JNK1/2 phosphorylation (western blot); assay type: cell-based, human
ERK1/2 [8] = experiment: IL-12(p70) production by stimulated DCs with ERK1/2 inhibitor; assay type: cell-based, human; conditions: inhibitor 1 h before stimulus
[9] = mice injected with OVA257-264 + stimulus
[10] = very high doses, which induced high levels of CD83
[11] = mice injected with OVA323-339 + stimulus

Molecule: S-[2,3-bis(palmitoyloxy)-(2-RS)-propyl]-N-palmitoyl-R-Cys-S-Ser-Lys4-OH [Pam3cys]
- induction of CD86 and I-Ab on splenic DC subsets ([1]; TLR-2 deficient (TLR2−/−) mice): severely impaired; also recorded: severely reduced
- CD86 and MHC class II (I-Ab) expression on splenic DC subsets ([1]; wild type mice, E. coli LPS 25 μg, Pam-3-cys 50 μg, 6 hours): equivalent up-regulation of CD86 and MHC class II; also recorded: upregulated CD86 and I-Ab expression
- ERK1/2 phosphorylation in DCs (ERK1/2 [2]): much higher magnitude and duration of phosphorylation (which was sustained even at 4 hours); also recorded: much higher magnitude and duration of phosphorylation, (which was sustained even at 4 h)
- CD80 expression on DCs [3]: also weaker
- CD86 expression on DCs [3]: much lower levels of CD86
- DC maturation (maturation marker CD83) [3]: weaker than that induced by E. coli LPS or flagellin; also recorded: weaker than that induced by Ec.LPS or flagellin
- bias of the CD8+ Tc response in vivo ([4]; OT-1): shift the balance towards the Tc2 pathway
- ratio IFNγ: IL-4 ([4]; OT-1, FIG. 13D): 28
- ratio IFNγ: IL-5 ([4]; OT-1, FIG. 13D): 21
- ratio IFNγ: IL-13 ([4]; OT-1, FIG. 13D): 4
- clonal expansion of OVA-specific CD8+ T cells [4]: induced clonal expansion
- clonal expansion of OVA-specific CD8+ T cells ([4]; listed as Pam-cys): enhanced the clonal expansion
- IFNγ in restimulated spleen cell culture [4, 9]: lower levels of IFNγ
- IL-4, IL-5 and IL-13 in restimulated spleen cell culture [4, 9]: relatively higher levels of IL-4, IL-5 and IL-13
- in vitro proliferative capacity of OVA-specific CD8+ T cells ([4]; spleen cells restimulated with OVA257-264, versus OVA257-264 alone): greatly enhanced responses
- IL-12 induced in DCs at 10 hrs ([5]; 10 hrs, no inhibitor): did not induce any IL-12
- IL-12 induced in DCs at 24 hrs ([5]; 24 hrs, no inhibitor): 20 to 100 pg/mL
- IL-10 secreted by DCs ([5]; 48 h with stimulus, ELISA): induced
- TNF-α secreted by DCs ([5]; 48 h with stimulus, ELISA): much weaker levels
- IL-12(p70) secreted by DCs ([5]; 48 h with stimulus, doses giving equivalent IL-6, ELISA): little or no IL-12(p70)
- IL-12(p70) secreted by DCs at very high doses of stimulus [5, 10]: did not induce IL-12(p70)
- c-Fos expression in DCs at 4 hours (c-Fos; 4 h of stimulation): maintained, even at 4 hours; also recorded: maintained even at 4 hrs
- phosphorylated c-Fos expression in DCs (c-Fos): expressed at significant levels
- total c-Fos expression (mean fluorescence intensity, fraction of cells) in DCs (c-Fos; peak, 2 hrs of stimulation, versus E. coli LPS or flagellin): much greater
- bias of the CD4+ Th response in vivo ([6]; OT-2): preferential bias towards the Th2 pathway
- ratio IFNγ: IL-4 ([6]; OT-2, FIG. 12D): 40
- ratio IFNγ: IL-5 ([6]; OT-2, FIG. 12D): 18
- ratio IFNγ: IL-13 ([6]; OT-2, FIG. 12D): 1.2
- IL-4 and IL-5 in restimulated spleen cell culture ([6]; OT-2, relative to OVA323-339+E. coli LPS, p<0.01): relatively higher levels of IL-4 and IL-5
- clonal expansion of OVA-specific CD4+ Thy-1.2+ T cells in spleen ([6]; i.p. with OVA323-339 50 μg, E. coli LPS 25 μg or Pam-3-cys 50 μg, day 4): significantly enhanced the clonal expansion; also recorded: induced clonal expansion
- IFNγ in restimulated spleen cell culture [6, 11]: much lower levels of IFNγ
- IL-5 in restimulated spleen cell culture [6, 11]: ~70 pg/mL
- IL-4 in restimulated spleen cell culture ([6]; mice injected with OVA323-339 + stimulus, ELISA sensitivity 8 pg/ml): ~30 pg/mL
- in vitro proliferative capacity of OVA-specific CD4+ T cells ([6]; spleen cells restimulated with OVA, versus OVA323-339 alone): greatly enhanced responses
- phosphorylation of p38 MAP kinase in DCs (p38 MAP kinase; 0.25, 1 and 4 h stimulation, phosphorylated to total ratio, ELISA): rapid burst of p38 phosphorylation at 15 minutes, which rapidly declined to near baseline levels by 1 hour
- phosphorylation of p38 MAP kinase in DCs (p38 MAP kinase; 0.25, 1 and 4 h stimulation, phosphorylated to total ratio, ELISA, listed as Pam-3-cys): enhanced phosphorylation of p38 MAP kinase
- IL-5 in DC-T cell culture ([7]; Example 1, FIG. 2B): high levels
- IL-13 in DC-T cell culture ([7]; Example 1, FIG. 2B): 1458 pg/mL
- IFNγ in DC-T cell culture ([7]; Example 1, FIG. 2B): high levels
- IL-5 in DC-T cell culture ([7]; Example 2, FIG. 8b): 600 pg/mL
- IL-13 in DC-T cell culture ([7]; Example 2, FIG. 8b): 600 pg/mL
- IFNγ in DC-T cell culture ([7]; Example 2, FIG. 8b): approximately 2000 pg/ml
- Th1 responses induced by DCs stimulated at very high doses [7, 10]: did not induce Th1 responses
- JNK1 phosphorylation in DCs (JNK1/2; Example 2, FIG. 9c, western blot): very weak

Molecule: N#CC(=C(/N)Sc1ccccc1N)/C(C#N)=C(\N)Sc1ccccc1N [U0126]
- IL-12(p70) production induced by Pam3cys when ERK1/2 is blocked (ERK1/2 [8]): significantly enhances IL-12(p70) production
- IL-12(p70) production induced by SEA when ERK1/2 is blocked (ERK1/2 [8]): did not result in consistent increases in IL-12(p70)

Molecule: flagellin
- IL-10 secreted by DCs [5]: induced
- IL-12(p70) secreted by DCs [5]: approximately 1000 pg/ml
- TNF-α secreted by DCs [5]: strongly induced
- phosphorylated c-Fos expression in DCs (c-Fos): not expressed
- phosphorylation of p38 MAP kinase in DCs (p38 MAP kinase): enhanced phosphorylation of p38 MAP kinase, which peaked at 15 minutes, and was sustained at levels well above baseline, even at 4 hours
- ratio of p38:ERK phosphorylation in DCs (p38 MAP kinase): much higher ratios of p38:ERK1/2
- type of Th response induced by stimulated DCs [7]: typical Th1 profile
- JNK1 phosphorylation in DCs (JNK1/2): high levels
- JNK 2 phosphorylation in DCs (JNK1/2): higher levels of JNK 2
- phosphorylation of JNK1 and 2 in DCs (JNK1/2): higher levels of JNK1 and 2
